Reference: US20090069300A1, “ISOQUINOLINYL AND ISOINDOLINYL DERIVATIVES AS HISTAMINE-3 ANTAGONISTS” (Wyeth, priority 2007, published 2009)
Counter-ions that a name gives are not always drawn.

SMILES | melting point
C[C@@H]1CCCN1CCN1CCc2cc(-c3ccc(C(=O)NC4CCCC4)cc3)ccc2C1=O (as salt: hydrochloride) [Example 80, N-cyclopentyl-4-(2-{2-[(2R)-2-methylpyrrolidin-1-yl]ethyl}-1-oxo-1,2,3,4-tetrahydroisoquinolin-6-yl)benzamide] | 260 to 262 °C
C[C@H]1CCCN1C(=O)c1ccc(-c2ccc3c(c2)CCN(CCN2CCCC2)C3=O)cc1 (as salt: hydrochloride) [Example 81, 6-(4-{[(2S)-2-methylpyrrolidin-1-yl]carbonyl}phenyl)-2-(2-pyrrolidin-1-ylethyl)-3,4-dihydroisoquinolin-1(2H)-one] | 171 to 172 °C
C[C@@H]1CCCN1C(=O)c1ccc(-c2ccc3c(c2)CCN(CCN2CCCC2)C3=O)cc1 (as salt: hydrochloride) [Example 82, 6-(4-{[(2R)-2-methylpyrrolidin-1-yl]carbonyl}phenyl)-2-(2-pyrrolidin-1-ylethyl)-3,4-dihydroisoquinolin-1(2H)-one] | 170 to 171 °C
CNC(=O)c1ccc(-c2ccc3c(c2)C(=O)N(CCN2CCC[C@H]2C)CC3)cc1 (as salt: hydrochloride) [Example 83, N-methyl-4-(2-{2-[(2R)-2-methylpyrrolidin-1-yl]ethyl}-1-oxo-1,2,3,4-tetrahydroiso-quinolin-7-yl)benzamide] | 262 to 263 °C
CC(C)NC(=O)c1ccc(-c2ccc3c(c2)C(=O)N(CCN2CCC[C@H]2C)CC3)cc1 (as salt: hydrochloride) [Example 85, N-isopropyl-4-(2-{2-[(2R)-2-methylpyrrolidin-1-yl]ethyl}-1-oxo-1,2,3,4-tetrahydroiso-quinolin-7-yl)benzamide] | 248 to 250 °C
C[C@@H]1CCCN1CCN1CCc2ccc(-c3ccc(C(=O)N4CCCC4)cc3)cc2C1=O (as salt: hydrochloride) [Example 86, 2-{2-[(2R)-2-methylpyrrolidin-1-yl]ethyl}-7-[4-(pyrrolidin-1-ylcarbonyl)phenyl]-3,4-dihydroisoquinolin-1(2H)-one] | 214 to 215 °C
CNC(=O)c1ccc(Oc2ccc3c(c2)CCN(CCN2CCCC2)C3=O)nc1 (as salt: hydrochloride) [Example 101, N-Methyl-6-(1-oxo-2-(2-(pyrrolidin-1-yl)ethyl)-1,2,3,4-tetrahydro-isoquinolin-6-yloxy)nicotinamide hydrochloride] | 228 to 230 °C
CON(C)C(=O)c1ccc(-c2ccc3c(c2)CCN(CCN2CCCC2)C3=O)cc1 (as salt: hydrochloride) [Example 102, N-methoxy-N-methyl-4-(1-oxo-2-(2-(pyrrolidin-1-yl)ethyl)-1,2,3,4-tetrahydroisoqui-nolin-6-yl)benzamide] | 190 to 191 °C
C[C@@H]1CCCN1CCN1CCc2cc(OCc3ccc(C#N)cc3)ccc2C1=O (as salt: hydrochloride) [Example 120, (R)-4-((2-(2-(2-Methylpyrrolidin-1-yl)ethyl)-1-oxo-1,2,3,4-tetra-hydroisoquinolin-6-yloxy)methyl)benzonitrile hydrochloride] | 212 to 214 °C
O=C(NCc1cccs1)c1ccc(-c2ccc3c(c2)CCN(CCN2CCCC2)C3=O)cc1 (as salt: hydrochloride) [Example 121, 4-[1-oxo-2-(2-pyrrolidin-1-ylethyl)-1,2,3,4-tetrahydroisoquinolin-6-yl]-N-(2-thienylmethyl)benzamide] | 211 to 213.5 °C
O=C(c1ccc(-c2ccc3c(c2)CCN(CCN2CCCC2)C3=O)cc1)N1CCOCC1 (as salt: hydrochloride) [Example 122, 6-[4-(morpholin-4-ylcarbonyl)phenyl]-2-(2-pyrrolidin-1-ylethyl)-3,4-dihydroisoquinolin-1(2H)-one] | 272 to 274 °C
O=C(NCCCl)c1ccc(-c2ccc3c(c2)CCN(CCN2CCCC2)C3=O)cc1 (as salt: hydrochloride) [Example 123, N-(2-chloroethyl)-4-[1-oxo-2-(2-pyrrolidin-1-ylethyl)-1,2,3,4-tetrahydroisoquinolin-6-yl]benzamide] | 236 to 237 °C
